{
  "source": "ChEMBL document CHEMBL1201862",
  "about": "“PubChem BioAssay data set” (2004)",
  "key": {"CHO-K1": {"test_system": "CHO-K1", "assay": "(§1) Counterscreen for antagonists of the orexin 1 receptor (OX1R; HCRTR1): Homogeneous time resolved fluorescence (HTRF)-based cell-based dose response assay to identify antagonists of the parental CHO-K1 cell line. [Related pubchem assays (depositor defined):AID434989, AID435008, AID463079, AID485270, AID492963, AID492964, AID492965, AID493232, AID504699, AID504701]", "type": "functional", "conditions": "Cricetulus griseus"}, "[1]": {"assay": "as §1, with “Fluorescence-based” for “Homogeneous time resolved fluorescence (HTRF)-based”, “cell-based high throughput” for “cell-based”, “CHO” for “CHO-K1”", "type": "functional"}, "[2]": {"target": "T1, Orexin/Hypocretin receptor type 1 (Homo sapiens, UniProt O43613)", "T1 sequence (O43613 whole entry)": "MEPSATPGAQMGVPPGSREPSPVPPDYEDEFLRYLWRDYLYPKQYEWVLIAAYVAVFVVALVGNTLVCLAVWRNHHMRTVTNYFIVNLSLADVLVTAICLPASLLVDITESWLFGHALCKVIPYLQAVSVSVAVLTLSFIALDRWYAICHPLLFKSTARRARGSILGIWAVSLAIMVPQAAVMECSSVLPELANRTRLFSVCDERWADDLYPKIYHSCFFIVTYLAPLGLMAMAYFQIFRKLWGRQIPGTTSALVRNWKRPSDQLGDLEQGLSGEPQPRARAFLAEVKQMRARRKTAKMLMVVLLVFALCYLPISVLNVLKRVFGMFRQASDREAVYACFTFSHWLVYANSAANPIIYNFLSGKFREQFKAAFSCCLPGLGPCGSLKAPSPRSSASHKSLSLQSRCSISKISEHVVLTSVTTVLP", "assay": "Homogeneous Time Resolved Fluorescence (HTRF)-based cell-based high throughput dose response assay for antagonists of the orexin 1 receptor (OX1R; HCRTR1). [Related pubchem assays (depositor defined):AID434989, AID435008, AID463079, AID485270, AID492963, AID492964, AID492965, AID493232, AID504717, AID504718]", "type": "functional"}, "[3]": {"target": "T1, Orexin/Hypocretin receptor type 1", "assay": "Fluorescence-based cell-based high throughput dose response assay for antagonists of the orexin 1 receptor (OX1R; HCRTR1). [Related pubchem assays (depositor defined):AID434989, AID435008, AID463079, AID485270, AID492963, AID492964, AID492965, AID493232, AID504717, AID504718]", "type": "functional"}, "Orexin receptor type 2 [4]": {"target": "T2, Orexin receptor type 2 (Homo sapiens, UniProt O43614)", "T2 sequence (O43614 whole entry)": "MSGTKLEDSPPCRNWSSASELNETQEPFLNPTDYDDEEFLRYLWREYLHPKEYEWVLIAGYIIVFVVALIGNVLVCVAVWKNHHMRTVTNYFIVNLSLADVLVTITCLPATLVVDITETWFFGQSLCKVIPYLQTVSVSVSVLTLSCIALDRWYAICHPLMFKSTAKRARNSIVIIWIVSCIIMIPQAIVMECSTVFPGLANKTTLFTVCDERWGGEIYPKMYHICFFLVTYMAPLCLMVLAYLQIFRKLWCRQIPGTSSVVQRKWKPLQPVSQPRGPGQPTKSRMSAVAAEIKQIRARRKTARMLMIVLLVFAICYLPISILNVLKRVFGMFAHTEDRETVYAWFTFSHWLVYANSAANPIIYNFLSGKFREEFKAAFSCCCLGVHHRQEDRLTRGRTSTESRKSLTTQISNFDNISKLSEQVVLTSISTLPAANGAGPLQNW", "assay": "Counterscreen assay for antagonists of the orexin 1 receptor (OX1R; HCRTR1): Fluorescence-based cell-based dose response assay for antagonists of the orexin 2 receptor (OX2R; HCRTR2), run by assay provider.", "type": "functional"}, "Orexin receptor type 2 [5]": {"target": "T2, Orexin receptor type 2", "assay": "Counterscreen assay for antagonists of the orexin 1 receptor (OX1R; HCRTR1): Homogeneous Time Resolved Fluorescence (HTRF)-based cell-based dose response assay for antagonists of the orexin 2 receptor (OX2R; HCRTR2), run by assay provider.", "type": "functional"}, "Jurkat": {"test_system": "Jurkat", "assay": "SAR Analysis of small molecule inhibitors of […] specific antigen receptor-induced NF-kB activation in a Jurkat cell line using a luminescence assay - Set 3. [Related pubchem assays (depositor defined):AID435022, AID435025, AID465]", "type": "functional, cell-based", "conditions": "Homo sapiens"}, "HEK293 [6]": {"test_system": "HEK293", "assay": "SAR Analysis of small molecule inhibitors of B-cell specific antigen receptor-induced NF-kB activation in a HEK-293T cell line using a luminescence assay - Set 2. [Related pubchem assays (depositor defined):AID435022, AID435025, AID489021]", "type": "functional, cell-based", "conditions": "Homo sapiens"}, "HEK293 [7]": {"test_system": "HEK293", "assay": "cytotoxicity in HEK293T NF-kB-Luc cells, SAR follow-up, cytotoxicity control for NF-kB activator project, cell-based, resazurin fluorescence (AID 493251)", "type": "functional", "conditions": "Homo sapiens"}, "[8]": {"target": "G-protein coupled receptor 55 (Homo sapiens, UniProt Q9Y2T6)", "sequence (Q9Y2T6 whole entry)": "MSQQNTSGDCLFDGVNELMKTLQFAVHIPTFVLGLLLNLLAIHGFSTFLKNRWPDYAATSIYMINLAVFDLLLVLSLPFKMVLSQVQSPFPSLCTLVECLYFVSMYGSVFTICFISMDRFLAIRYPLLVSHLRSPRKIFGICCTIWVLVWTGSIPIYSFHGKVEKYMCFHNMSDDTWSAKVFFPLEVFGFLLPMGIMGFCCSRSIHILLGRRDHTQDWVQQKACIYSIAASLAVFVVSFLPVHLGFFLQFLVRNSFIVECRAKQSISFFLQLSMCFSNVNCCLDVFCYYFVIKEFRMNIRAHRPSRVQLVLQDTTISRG", "assay": "GPR55 antagonists blocking LPI-driven arrestin recruitment, primary screen, imaging, U2OS, beta-arrestin-GFP, LPI agonist (AID 2013)", "type": "functional"}, "Ephrin type-A receptor 4": {"target": "Ephrin type-A receptor 4 (Mus musculus, UniProt Q03137)", "sequence (Q03137 whole entry)": "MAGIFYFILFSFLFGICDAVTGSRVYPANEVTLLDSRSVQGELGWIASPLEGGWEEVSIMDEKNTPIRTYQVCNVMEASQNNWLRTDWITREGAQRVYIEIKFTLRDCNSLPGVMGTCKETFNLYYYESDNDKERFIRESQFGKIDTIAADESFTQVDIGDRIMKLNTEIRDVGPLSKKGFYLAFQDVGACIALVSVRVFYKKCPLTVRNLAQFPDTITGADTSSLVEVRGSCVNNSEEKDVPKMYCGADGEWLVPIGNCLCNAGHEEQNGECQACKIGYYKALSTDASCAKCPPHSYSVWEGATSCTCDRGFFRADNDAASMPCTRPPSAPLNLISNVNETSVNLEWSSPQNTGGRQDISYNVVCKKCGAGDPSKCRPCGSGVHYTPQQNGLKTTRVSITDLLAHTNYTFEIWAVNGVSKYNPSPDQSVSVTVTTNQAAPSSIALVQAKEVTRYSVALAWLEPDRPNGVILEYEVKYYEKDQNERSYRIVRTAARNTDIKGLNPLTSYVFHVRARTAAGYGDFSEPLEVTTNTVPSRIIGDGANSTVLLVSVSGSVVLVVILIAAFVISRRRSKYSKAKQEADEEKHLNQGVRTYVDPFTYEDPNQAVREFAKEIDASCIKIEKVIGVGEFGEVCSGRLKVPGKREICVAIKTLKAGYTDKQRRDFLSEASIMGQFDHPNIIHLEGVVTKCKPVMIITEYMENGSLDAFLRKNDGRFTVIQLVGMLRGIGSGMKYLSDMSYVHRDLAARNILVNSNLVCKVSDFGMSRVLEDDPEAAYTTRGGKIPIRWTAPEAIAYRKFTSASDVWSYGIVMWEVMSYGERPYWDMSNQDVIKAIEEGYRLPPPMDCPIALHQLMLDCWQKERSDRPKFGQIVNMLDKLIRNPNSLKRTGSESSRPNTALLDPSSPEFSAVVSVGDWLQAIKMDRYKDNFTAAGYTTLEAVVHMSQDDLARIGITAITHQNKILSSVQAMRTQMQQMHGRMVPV", "assay": "inhibitors of EphA4 binding to KYL peptide, primary screen, biochemical, colorimetric, mouse EphA4 (AID 689)", "type": "functional"}, "[9]": {"assay": "Luminescence Cell-Based Dose Retest to Confirm Inhibitors of Cancer Stem Cells. [Related pubchem assays (depositor defined):AID2717, AID2721]", "type": "functional", "conditions": "Homo sapiens"}, "[10]": {"target": "Botulinum neurotoxin type A (Clostridium botulinum (strain Hall / ATCC 3502 / NCTC 13319 / Type A), UniProt P0DPI1)", "sequence (P0DPI1 2-448 limits assumed)": "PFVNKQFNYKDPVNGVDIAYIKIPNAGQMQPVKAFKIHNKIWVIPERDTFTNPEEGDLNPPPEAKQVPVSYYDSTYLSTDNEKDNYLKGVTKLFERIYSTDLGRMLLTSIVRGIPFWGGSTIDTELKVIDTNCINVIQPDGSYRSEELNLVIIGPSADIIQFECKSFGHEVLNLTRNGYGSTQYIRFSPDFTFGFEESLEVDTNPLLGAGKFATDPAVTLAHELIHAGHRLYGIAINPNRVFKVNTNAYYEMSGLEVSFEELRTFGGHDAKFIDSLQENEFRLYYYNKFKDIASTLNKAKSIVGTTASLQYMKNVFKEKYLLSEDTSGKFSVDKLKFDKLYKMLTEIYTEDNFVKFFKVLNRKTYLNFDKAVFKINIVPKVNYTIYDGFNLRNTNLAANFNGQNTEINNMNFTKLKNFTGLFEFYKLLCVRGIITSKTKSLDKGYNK", "assay": "High-throughput multiplex microsphere dose response for inhibitors of toxin protease, specifically Botulinum neurotoxin light chain A protease, compounds from Cherry Pick 01.", "type": "functional", "conditions": "read-out: EC50_MICROM"}, "[11]": {"assay": "NIH-3T3 fibroblast cytotoxicity, dose response, cytotoxicity control, cell-based, fluorescence, Alamar Blue, secondary assay (AID 2327)", "type": "functional"}, "[12]": {"assay": "C. albicans growth with fluconazole, confirmation, fluorescence, retest (AID 2467)", "type": "functional, cell-based"}, "Large T antigen": {"target": "Large T antigen (Simian virus 40, UniProt P03070)", "sequence (P03070 whole entry)": "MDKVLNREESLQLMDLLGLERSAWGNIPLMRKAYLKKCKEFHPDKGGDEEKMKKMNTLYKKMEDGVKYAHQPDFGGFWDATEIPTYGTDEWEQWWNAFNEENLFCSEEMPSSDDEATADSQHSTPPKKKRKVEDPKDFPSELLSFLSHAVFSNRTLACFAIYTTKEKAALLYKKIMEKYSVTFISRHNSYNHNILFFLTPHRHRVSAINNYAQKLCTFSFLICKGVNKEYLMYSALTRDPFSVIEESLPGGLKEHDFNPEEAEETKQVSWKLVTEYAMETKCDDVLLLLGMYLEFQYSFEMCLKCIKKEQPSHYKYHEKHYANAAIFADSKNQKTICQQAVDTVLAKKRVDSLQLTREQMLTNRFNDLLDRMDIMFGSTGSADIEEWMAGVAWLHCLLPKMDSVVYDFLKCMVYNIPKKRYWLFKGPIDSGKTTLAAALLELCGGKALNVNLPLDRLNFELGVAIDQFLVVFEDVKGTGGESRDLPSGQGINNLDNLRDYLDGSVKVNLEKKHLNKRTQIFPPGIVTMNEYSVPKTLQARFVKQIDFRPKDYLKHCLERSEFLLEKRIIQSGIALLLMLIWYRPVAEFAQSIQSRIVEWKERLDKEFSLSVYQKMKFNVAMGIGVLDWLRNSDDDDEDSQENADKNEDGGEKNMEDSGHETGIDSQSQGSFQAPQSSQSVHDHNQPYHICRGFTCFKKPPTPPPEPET", "type": "functional, Betapolyomavirus macacae"}, "[13]": {"target": "Serine/threonine-protein phosphatase (Candida dubliniensis (strain CD36 / CBS 7987 / NCPF 3949 / NRRLY-17841) (Yeast), UniProt B9W6M3)", "sequence (B9W6M3 whole entry)": "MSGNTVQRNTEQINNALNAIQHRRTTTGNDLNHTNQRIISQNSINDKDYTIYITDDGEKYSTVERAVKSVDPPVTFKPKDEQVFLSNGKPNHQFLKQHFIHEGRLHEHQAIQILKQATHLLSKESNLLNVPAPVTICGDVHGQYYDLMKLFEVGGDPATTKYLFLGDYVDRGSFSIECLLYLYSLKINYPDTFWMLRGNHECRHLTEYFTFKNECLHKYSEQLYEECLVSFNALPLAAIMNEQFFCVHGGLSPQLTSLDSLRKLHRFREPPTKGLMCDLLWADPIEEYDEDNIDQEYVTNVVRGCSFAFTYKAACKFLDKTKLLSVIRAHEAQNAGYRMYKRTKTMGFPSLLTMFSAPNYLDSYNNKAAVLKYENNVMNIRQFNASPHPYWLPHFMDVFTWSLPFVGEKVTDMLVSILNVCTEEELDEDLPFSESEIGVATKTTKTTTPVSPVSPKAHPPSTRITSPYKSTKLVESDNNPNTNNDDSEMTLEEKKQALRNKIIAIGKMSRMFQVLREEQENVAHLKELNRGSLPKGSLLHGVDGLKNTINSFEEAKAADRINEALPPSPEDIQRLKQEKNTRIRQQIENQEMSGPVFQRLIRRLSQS", "assay": "calcineurin pathway inhibitors in yeast reporter, dose response, S. cerevisiae, CDRE-lacZ, luminescence, secondary (AID 2388)", "type": "functional, cell-based"}, "[14]": {"target": "ATP-dependent molecular chaperone HSP82 (Candida albicans (strain WO-1) (Yeast), UniProt C4YTQ8)", "sequence (C4YTQ8 whole entry)": "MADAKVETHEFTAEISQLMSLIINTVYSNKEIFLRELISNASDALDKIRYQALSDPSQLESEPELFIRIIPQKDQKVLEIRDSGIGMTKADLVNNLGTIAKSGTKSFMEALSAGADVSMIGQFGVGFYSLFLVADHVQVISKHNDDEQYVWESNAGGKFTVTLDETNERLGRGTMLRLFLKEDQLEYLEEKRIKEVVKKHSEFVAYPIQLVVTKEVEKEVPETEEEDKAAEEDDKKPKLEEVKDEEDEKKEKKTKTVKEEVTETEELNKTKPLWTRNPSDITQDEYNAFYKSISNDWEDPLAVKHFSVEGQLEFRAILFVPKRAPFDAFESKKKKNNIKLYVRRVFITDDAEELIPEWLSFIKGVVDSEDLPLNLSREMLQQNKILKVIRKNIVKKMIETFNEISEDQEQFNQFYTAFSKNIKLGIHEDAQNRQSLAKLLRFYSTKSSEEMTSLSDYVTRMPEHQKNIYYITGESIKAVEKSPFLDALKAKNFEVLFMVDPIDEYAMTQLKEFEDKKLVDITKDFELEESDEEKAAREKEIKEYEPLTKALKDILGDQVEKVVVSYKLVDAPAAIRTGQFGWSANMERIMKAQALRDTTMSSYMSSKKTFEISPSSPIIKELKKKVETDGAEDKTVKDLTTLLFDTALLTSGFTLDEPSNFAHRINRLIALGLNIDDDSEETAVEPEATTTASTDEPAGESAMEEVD", "assay": "loss of DOC-induced GRE-beta-galactosidase reporter signal, dose response, Hsp90 inhibitor project, S. cerevisiae, luminescence (AID 2400)", "type": "functional, cell-based"}, "Candida albicans [15]": {"test_system": "Candida albicans", "assay": "growth inhibition of resistant C. albicans, dose response, CaCi-8 strain, fluconazole, dry powder, set 4 (AID 488950)", "type": "functional, organism-based"}, "Candida albicans [16]": {"test_system": "Candida albicans", "assay": "C. albicans growth inhibition with fluconazole, dose response, antifungal resistance reversal project, CaCi-2 strain, Alamar Blue, dry powder, set 2 (AID 488930)", "type": "functional, organism-based"}, "Candida albicans [17]": {"test_system": "Candida albicans", "assay": "fluconazole resistance reversal in C. albicans, dose response, CaCi-2 strain, Alamar Blue, dry powder, set 4 (AID 488943)", "type": "functional, organism-based"}, "Candida albicans [18]": {"test_system": "Candida albicans", "assay": "growth inhibition of azole-resistant C. albicans, dose response, CaCi-8 strain, Alamar Blue, dry powder, set 2 (AID 488909)", "type": "functional, organism-based"}},
  "note": "The source made the active and inactive calls.",
  "data": [
    {"smiles": "O=[N+]([O-])c1c(O)nc2ccc(Cl)cc2c1-c1ccccc1", "values": [
      {"measurement": "IC50", "setting": "CHO-K1", "result": "> 66.2 µM (inactive)"},
      {"measurement": "IC50", "setting": "[1]", "result": "> 49.8 µM (inactive)"},
      {"measurement": "IC50", "setting": "[2]", "result": "0.915 µM (active)"},
      {"measurement": "IC50", "setting": "[3]", "result": "> 49.8 µM (inactive)"},
      {"measurement": "IC50", "setting": "Orexin receptor type 2 [4]", "result": "> 88.8 µM (inactive)"},
      {"measurement": "IC50", "setting": "Orexin receptor type 2 [5]", "result": "1.5 µM (active)"}
    ]},
    {"smiles": "CCOCCCNC(=O)CSCc1nc(-c2ccc(OCC)cc2)oc1C", "values": [
      {"measurement": "IC50", "setting": "Jurkat", "result": "51.9 µM (inactive)"},
      {"measurement": "IC50", "setting": "HEK293 [6]", "result": "> 80 µM (inactive)"},
      {"measurement": "IC50", "setting": "HEK293 [7]", "result": "> 80 µM (inactive)"}
    ]},
    {"smiles": "CCSc1nnc(-c2sc3nnc(-c4ccccc4)c(-c4ccccc4)c3c2N)o1", "values": [
      {"measurement": "IC50", "setting": "[8]", "result": "2.44 µM (active)"},
      {"measurement": "IC50", "setting": "Ephrin type-A receptor 4", "result": "4.62 µM (active)"},
      {"measurement": "AC50", "setting": "[9]", "result": "0.286 µM (active)"},
      {"measurement": "EC50", "setting": "[10]", "result": "6.9 µM (active)"}
    ]},
    {"smiles": "O=Nc1c(-c2cccc([N+](=O)[O-])c2)nc2ncccn12", "values": [
      {"measurement": "EC50", "setting": "[11]", "result": "> 160 µM (inconclusive)"},
      {"measurement": "EC50", "setting": "[12]", "result": "1.11 µM (active)"},
      {"measurement": "IC50", "setting": "Large T antigen", "result": "32.5 µM (active)"},
      {"measurement": "EC50", "setting": "[13]", "result": "0.828 µM (active)"},
      {"measurement": "EC50", "setting": "[14]", "result": "0.826 µM (active)"}
    ]},
    {"smiles": "O=C(C1CCCC1)N1CCN(c2ccnc3cc(Cl)ccc23)CC1", "values": [
      {"measurement": "AC50", "setting": "Candida albicans [15]", "result": "1.71 µM (active)"},
      {"measurement": "AC50", "setting": "Candida albicans [16]", "result": "0.566 µM (active)"},
      {"measurement": "AC50", "setting": "Candida albicans [17]", "result": "2.08 µM (active)"},
      {"measurement": "AC50", "setting": "Candida albicans [18]", "result": "2.01 µM (active)"}
    ]}
  ]
}
